Data from patent publication US11419829B2, “Use of cannabidiol in combination with 5-HT2B receptor agonists or amphetamines in the treatment of epilepsy” (GW Research Limited, priority 2017, dated 2022).
Counter-ions that a name gives are not always drawn.

Legend:
human 5-HT2B receptor [1] = biological target: T1, human 5-HT2B receptor (Homo sapiens, UniProt P41595); assay: 5-HT2B agonist effect, IP1 production (HTRF) in transfected CHO cells; type: cell-based; details: IP1 production vs 1 μM 5-HT control
T1 construct: expressed in transfected cells; host or cells: CHO cells
T1 sequence (P41595 whole entry): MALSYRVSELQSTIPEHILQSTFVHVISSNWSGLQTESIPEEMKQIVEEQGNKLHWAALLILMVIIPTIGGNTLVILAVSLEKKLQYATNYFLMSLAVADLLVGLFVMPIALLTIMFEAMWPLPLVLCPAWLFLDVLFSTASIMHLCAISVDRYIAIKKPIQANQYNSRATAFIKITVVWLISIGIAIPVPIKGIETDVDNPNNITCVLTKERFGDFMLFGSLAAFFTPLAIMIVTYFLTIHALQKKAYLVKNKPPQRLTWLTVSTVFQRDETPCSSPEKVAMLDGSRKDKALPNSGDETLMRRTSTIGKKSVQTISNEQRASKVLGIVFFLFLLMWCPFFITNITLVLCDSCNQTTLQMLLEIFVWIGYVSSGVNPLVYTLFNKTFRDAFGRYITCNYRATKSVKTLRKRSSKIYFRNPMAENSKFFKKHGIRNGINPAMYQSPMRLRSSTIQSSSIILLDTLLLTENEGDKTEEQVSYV
Procedure: (§1) Evaluation of the activity of CBD and 7-OH-CBD at the human 5-HT2B receptor was undertaken in transfected CHO cells. Such activity as either an agonist or antagonist was determined by measuring their effects IP1 production using the HTRF detection method.
(§2) Cells were suspended in a buffer containing 10 mM Hepes/NaOH (pH 7.4), 4.2 mM KCl, 146 mM NaCl, 1 mM CaCl2), 0.5 mM MgCl2, 5.5 mM glucose and 50 mM LiCl, then distributed in microplates at a density of 4.104 cells/well and incubated for 30 min at 37° C. in the presence of buffer (basal control), test compound or reference agonist.
For stimulated control measurement, separate assay wells contain 1 μM 5-HT. Following incubation, the cells are lysed and the fluorescence acceptor (D2-labeled IP1) and fluorescence donor (anti-IP1 antibody labelled with europium cryptate) are added.
After 60 min at room temperature, the fluorescence transfer is measured at A ex=337 nm and A em=620 and 665 nm using a microplate reader (Rubystar, BMG).
(§3) The IP1 concentration is determined by dividing the signal measured at 665 nm by that measured at 620 nm (ratio).
The results are expressed as a percent of the control response to 1 μM 5-HT. The standard reference agonist is 5-HT, which is tested in each experiment at several concentrations to generate a concentration-response curve from which its EC50 value is calculated.

human 5-HT2B receptor [2] = biological target: T1, human 5-HT2B receptor; assay: 5-HT2B antagonist effect, IP1 production (HTRF) in transfected CHO cells; type: cell-based; details: antagonism of 30 nM 5-HT
Procedure: as §1
as §2, with “preincubated” for “incubated”, “5” for “30”, “room temperature” for “37° C.”, “antagonist.” for “agonist.”
Thereafter, the reference agonist 5-HT is added at a final concentration of 30 nM. […] Following 30 min incubation at 37° C., the cells are lysed and the fluorescence acceptor (D2-labeled IP1) and fluorescence donor (anti-IP1 antibody labelled with europium cryptate) are added.
After 60 min at room temperature, the fluorescence transfer is measured at ex=337 nm and λ em=620 and λ 665 nm using a microplate reader (Rubystar, BMG).
as §3
The results are expressed as a percent inhibition of the control response to 30 nM 5-HT. […]

[3] = Plasma concentrations in human clinical trials in epilepsy; type: in vivo
[4] = tested on: MES-induced tonic seizures; assay: Maximal electroshock seizure (MES) test in mice with isobolographic/CalcuSyn DDI analysis; type: in vivo, mouse; details: for Dose Reduction Index (DRI): in CBD/FEN combination vs drug alone; for doses with statistically significant (p<0.05) anticonvulsant effect vs vehicle: Experiment A, single drug; for doses with statistically significant (p<0.05) anticonvulsant effect vs vehicle / effect on incidence of MES vs vehicle, drug alone: i.p.; for doses with statistically significant (p<0.05) anticonvulsant effect vs vehicle / ED50: mouse MES; for effect on incidence of MES vs vehicle, drug alone: Experiment B, low doses alone; for ED50: median-effect curves, drug alone, read-out: potency (Dm or ED50)
Procedure: The study was performed in two phases. […] Secondly, (Experiment B), drug-drug interactions (DDI) and anticonvulsant activities for CBD/FEN in combination were determined.
Experiment A was performed using 160 male, C57Bl6 mice, weighing between 20.1-30.1 g, and Experiment B was performed using 126 male, C57Bl6 mice, weighing between 19.2-26.1 g, purchased from a licensed breeder (Charles River, UK).
The following drugs were used in this study: Purified botanical CBD provided by GW Research Ltd., fenfluramine hydrochloride (FEN) purchased from Sigma Merck. The control vehicle used was 1:1:18 (5% ethanol, 5% Kolliphor EL, 90% saline). CBD and FEN were dissolved in the same control vehicle for comparison.
Animals were dosed (10 ml/kg) i.p. at 60 min for CBD and 30 min for FENS pre-treatment times, prior to MES and before plasma and brain sampling immediately post-MES test.
Here, doses were selected based on known ED50 and NOAELs for all the drugs and were: CBD-BOT [10, 30, 50, 70 and 100 mg/kg] and FEN [1, 2, 3, 5 and 10 mg/kg]. The number of animals in each of these groups were 10 (n=10), and 160 in total.
For Experiment B, in addition to the vehicle group, three dose groups were used for each of the treatments. Here, doses were selected based on analysis of the data obtained from Experiment A according to methods described for determination of isobolographic interactions. Doses as CBD/FEN combination were [20.9/2.5, 13.6/3.9 and 28.3/1.2 mg/kg]. The number of animals in each of these groups were 10 (n=10), and with individual CBD, FEN and VPA doses n=190 in total.
Electroconvulsions were produced by application of a fixed current intensity of 30 mA (0.2 sec duration) delivered via corneal electrodes. […] Mice were individually assessed for production of seizure determined by presence or absence of tonic hindlimb extension following current application.
Data were collected by an observer unaware of the treatment received by each animal.
The protective activities of CBD and FEN administered alone were evaluated and expressed as effective doses (ED50; mg/kg based on dose administered) and effective exposures (EE50; μM based on bioanalysis of brain samples) where EX50 is defined as the dose or brain exposure required to protect 50% of mice from MES-induced tonic seizures. CBD/FEN combinations were evaluated at 3 fixed ratios (1:3, 1:1 and 3:1) based on an EE50 derived from an assumption of linearly additive effects of EEs of the two drugs in combination.
For the three fixed-ratio CBD/FEN combinations (1:3, 1:1 and 3:1), calculations were based on Loewe's equation of additivity as follows; x/EE50(CBD)+y/EE50(FEN)=1; where x=the exposure of CBD and y=the exposure at which […], when co-administered with FEN, should theoretically exert the desired/additive 50% effect. Subsequently, CBD and FEN doses corresponding to 50% of respective EE50 were used for the CBD/FEN 1:1 ratio. Similarly, dose proportions were calculated for the CBD/FEN 1:3 and 3:1 ratios based on theoretical additive EE50.
The percentage protection of animals against MES-induced seizure were plotted against doses of AED alone (CBD or FEN) from Experiment A as log-probit linear regression analysis to derive ED50 and EE50.
Loewe's equation of additivity was used to determine fractions of EE50 in the three ratios 1:3, 1:1 and 3:1 for each of the combinations CBD/FEN. Graphs were plotted in Prism, for CBD and FEN to determine relationships versus these exposures to determine actual doses for the combination study (Experiment B).
DDI using these three-fixed dose-ratios of CBD/FEN was assessed using CalcuSyn v2.11 (Biosoft).

[5] = tested on: seizure frequency in patients with Dravet syndrome; details: low dose between 0.25 and 1.0 mg/kg/day; cited from earlier work
[6] = biological target: T2, human recombinant 5-HT2C receptor (Homo sapiens, UniProt P28335); assay: Inhibition of specific binding at human recombinant 5-HT2C receptors (FIG. 2B)
T2 sequence (P28335 33-458): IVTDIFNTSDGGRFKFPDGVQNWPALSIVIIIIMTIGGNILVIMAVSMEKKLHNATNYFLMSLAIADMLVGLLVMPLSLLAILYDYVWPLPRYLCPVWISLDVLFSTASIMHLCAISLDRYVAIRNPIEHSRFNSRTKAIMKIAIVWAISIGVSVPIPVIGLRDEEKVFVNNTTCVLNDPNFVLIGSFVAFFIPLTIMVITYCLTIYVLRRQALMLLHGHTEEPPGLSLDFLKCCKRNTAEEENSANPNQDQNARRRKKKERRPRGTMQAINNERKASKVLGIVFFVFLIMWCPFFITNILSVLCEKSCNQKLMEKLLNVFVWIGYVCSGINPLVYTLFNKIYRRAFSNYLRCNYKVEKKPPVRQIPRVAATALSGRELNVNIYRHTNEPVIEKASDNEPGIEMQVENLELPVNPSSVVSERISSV

Compound | agonist activity at 5-HT2B receptors (human 5-HT2B receptor [1]) | Kb (human 5-HT2B receptor [2]) [nM] | 7-OH-CBD concentration relative to that achieved by CBD ([3]; clinical use of CBD) [%] | Drug alone dose for the given effect ([4]; Effect 40%) [mg/kg] | Dose Reduction Index (DRI) ([4]; Effect 40%) [fold] | Drug alone dose for the given effect ([4]; Effect 80%) [mg/kg] | Dose Reduction Index (DRI) ([4]; Effect 80%) [fold] | Drug alone dose for the given effect ([4]; Effect 90%) [mg/kg] | Dose Reduction Index (DRI) ([4]; Effect 90%) [fold] | doses with statistically significant (p<0.05) anticonvulsant effect vs vehicle [4] [mg/kg] | effect on incidence of MES vs vehicle, drug alone [4] | ED50 [4] [mg/kg] | effect on seizure frequency [5] | interaction with the 5-HT2C receptor [6] | plasma concentration reached ([3]; human clinical trials in epilepsy, plasma) | molar plasma concentration ([3]; human clinical use of CBD, plasma) [µM]
C=C(C)[C@@H]1CCC(CO)=C[C@H]1c1c(O)cc(CCCCC)cc1O [7-OH-CBD, 7-hydroxy cannabidiol] | Neither CBD nor 7-OH-CBD possess agonist activity | 690 | ~50 |  |  |  |  |  |  |  |  |  |  |  |  | 
CCNC(C)Cc1cccc(C(F)(F)F)c1 (stereo not drawn) [FEN, fenfluramine hydrochloride, reference compound] |  |  |  | 4.19 | 3.639 | 8.26 | 3.306 | 11.24 | 2.921 | 10 | no significant effect | 4.9 | reduce seizure frequency |  |  | 
C=C(C)[C@@H]1CCC(C)=C[C@H]1c1c(O)cc(CCCCC)cc1O [CBD, cannabidiol] | Neither CBD nor 7-OH-CBD possess agonist activity | 3700 |  | 28.46 | 1.006 | 56.55 | 2.704 | 77.15 | 5.690 | 50 to 100 | no significant effect | 33.2 |  | does not act upon the 5-HT2C receptors | up to 330 ng/mL | ~1
